# Results reported in US6350742B1, “Compositions and methods for treating infections of the ear” (Carter-Wallace, Inc., priority 1998, dated 2002).
# Tests used:
# [1] = pH of a saturated solution in deionized water; type: physicochemical
# [2] = stability in the solid state; type: physicochemical; conditions: stored at ambient conditions
# [3] = test system: microbiota indigenous to the human ear; test: activity against microbiota of the ear
# [4] = cited from earlier work
# [5] = apparent partition coefficient between octanol and water; type: physicochemical; conditions: water buffered at pH 7.2
# [6] = test system: antibiotic resistant strains of H.pylori, staphylococci, streptococci, enterococci; test: activity against antibiotic resistant bacteria; conditions: enterococci and other bacterial and nosocomial infections
# [7] = test system: mice; conditions: cited from earlier work
# [8] = solubility in aqueous solutions and organic solvents; type: physicochemical
# [9] = stability in aqueous solution; type: physicochemical; conditions: pre-packed and stored
smiles,measurement,setting,value
"O=S1(=O)CCN(CN2CCS(=O)(=O)NC2)CN1 [Taurolidine, 4,4′-methylenebis (tetrahydro-1,2,4-thiadiazine)-1,1,1′,1′ tetraoxide]",pH of saturated solution,[1],7.4
same,stability in the solid state,[2],acceptable stability in the solid state
same,effect on growth of microbiota indigenous to the human ear,[3],eradicates or controls the growth
same,cumulative dose shown to be safe and well tolerated,[4]; cumulative doses,exceeding 300 g
same,systemic dose shown to be safe and well tolerated,[4]; systemic doses,exceeding 40 g/day
same,apparent partition coefficient between octanol and water,[5],approximately 0.13
same,effect on antibiotic resistant strains,[6],destroys antibiotic resistant strains
same,teratogenicity,[7],non-teratogenic
same,solubility,[8]; CHCl3,insoluble
same,solubility,[8]; Dilute HCl,soluble
same,solubility,[8]; Dilute NaOH,soluble
same,solubility,[8]; EtOH,sparingly soluble
same,solubility,"[8]; Water, 20° C.",1% at 20 °C
same,stability in aqueous solution,[9],stored over relatively long periods
